Measured values taken from ChEMBL document CHEMBL1158547, “KDR Kinase Inhibitor Isolated from the Mushroom Boletopsis leucomelas” (J Nat Prod, 2010).

How the values were obtained:
[1] = target: Vascular endothelial growth factor receptor 2 (Homo sapiens, UniProt P35968); assay: Inhibition of KDR after 2 hrs incubation
HUVEC = assay: Antiproliferative activity against HUVEC after 72 hrs by WST8 dye reduction assay; format: functional, cell-based; conditions: Homo sapiens

Chain of Vascular endothelial growth factor receptor 2 (P35968 whole entry): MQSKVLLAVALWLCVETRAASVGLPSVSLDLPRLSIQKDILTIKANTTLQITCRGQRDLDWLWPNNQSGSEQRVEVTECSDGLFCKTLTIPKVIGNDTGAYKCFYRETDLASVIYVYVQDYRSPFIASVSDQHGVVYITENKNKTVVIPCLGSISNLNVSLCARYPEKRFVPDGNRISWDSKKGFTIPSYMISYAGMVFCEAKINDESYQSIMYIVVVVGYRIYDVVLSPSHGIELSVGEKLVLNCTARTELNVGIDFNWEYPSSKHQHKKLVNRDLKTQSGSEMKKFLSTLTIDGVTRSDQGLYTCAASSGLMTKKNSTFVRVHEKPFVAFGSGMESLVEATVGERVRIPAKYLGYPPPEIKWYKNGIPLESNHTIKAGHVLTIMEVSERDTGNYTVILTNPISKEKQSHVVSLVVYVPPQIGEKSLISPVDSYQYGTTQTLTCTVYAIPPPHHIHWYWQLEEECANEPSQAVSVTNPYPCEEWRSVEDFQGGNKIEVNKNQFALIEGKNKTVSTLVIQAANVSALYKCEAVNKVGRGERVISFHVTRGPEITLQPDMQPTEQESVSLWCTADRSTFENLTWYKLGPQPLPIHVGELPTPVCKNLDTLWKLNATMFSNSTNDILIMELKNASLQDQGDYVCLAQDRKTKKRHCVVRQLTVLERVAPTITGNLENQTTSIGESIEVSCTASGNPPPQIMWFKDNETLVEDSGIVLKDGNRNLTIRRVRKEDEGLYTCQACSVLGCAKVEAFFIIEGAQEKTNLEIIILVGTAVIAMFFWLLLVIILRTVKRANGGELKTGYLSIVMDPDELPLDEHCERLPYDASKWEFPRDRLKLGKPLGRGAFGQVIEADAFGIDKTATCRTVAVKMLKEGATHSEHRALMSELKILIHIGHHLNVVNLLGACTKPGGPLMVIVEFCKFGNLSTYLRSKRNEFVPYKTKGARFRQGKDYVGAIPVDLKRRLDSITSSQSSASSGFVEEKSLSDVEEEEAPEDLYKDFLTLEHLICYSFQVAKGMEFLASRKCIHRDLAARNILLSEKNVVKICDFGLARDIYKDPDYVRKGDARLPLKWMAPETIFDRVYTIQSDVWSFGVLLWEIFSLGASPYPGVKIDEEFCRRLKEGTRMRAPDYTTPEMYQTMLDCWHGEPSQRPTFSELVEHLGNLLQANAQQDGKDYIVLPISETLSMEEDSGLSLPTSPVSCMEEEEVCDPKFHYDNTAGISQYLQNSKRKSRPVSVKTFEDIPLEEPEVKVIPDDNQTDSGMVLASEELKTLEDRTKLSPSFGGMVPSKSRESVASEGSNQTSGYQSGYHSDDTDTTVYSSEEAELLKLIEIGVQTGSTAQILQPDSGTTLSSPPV

IC50 [1]: 70.7 µM
Structure (SMILES): CC(=O)Oc1c(-c2ccc(O)c(O)c2)c(O)c(O)c2c1oc1cc(O)c(O)cc12 [BOLETOPSIN C]
IC50 (HUVEC): 9.04 µM
